Measurements published in patent publication US10167299B2, “1-(3-aminopropyl) substituted cyclic amine compounds, preparation method therefor, and pharmaceutical compositions and uses thereof” (SHANGHAI INSTITUTE OF MATERIA MEDICA, CHINESE ACADEMY OF …, priority 2013, dated 2019).
In brackets after ≈: the same amount, converted by molar mass. Read-outs that look alike come from different tables or passages of the source.

What was measured:
[1] = target: CCR5 (Homo sapiens (Human), UniProt P51681); test: Calcium flux inhibition experiment; type: cell-based; conditions: for IC50: HEK293/CCR5-Gα16 cell line, calcium flux, read-out: CCR5 IC50; for calcium influx inhibition effect in words, versus positive control compounds: conclusion from Table 1
Sequence of CCR5 (P51681 whole entry): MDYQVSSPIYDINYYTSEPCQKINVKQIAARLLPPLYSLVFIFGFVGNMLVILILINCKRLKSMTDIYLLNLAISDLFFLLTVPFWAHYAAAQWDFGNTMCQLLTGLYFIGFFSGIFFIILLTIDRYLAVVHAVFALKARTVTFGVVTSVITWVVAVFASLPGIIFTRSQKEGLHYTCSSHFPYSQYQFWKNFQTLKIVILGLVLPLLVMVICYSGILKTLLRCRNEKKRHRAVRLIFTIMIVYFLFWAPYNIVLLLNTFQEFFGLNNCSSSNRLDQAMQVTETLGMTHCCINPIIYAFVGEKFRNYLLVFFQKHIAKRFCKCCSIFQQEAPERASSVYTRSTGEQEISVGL

[2] = system: CCR5 protein; test: Thermal stability of protein test (CPM-assay); type: binding; conditions: thermal stability of CCR5 protein with compound, CPM dye
From the text: Experimental theory: many cysteines are present in CCR5 protein sequence. Cysteines located in loop region form disulfide bonds to stabilize the tertiary structure of the protein. Some free cysteines in reduced state are located in the transmembrane region. Under excitation by incident light of 387 nm, the combination of free sulfhydryl and fluorescent dye CPM can emit excitation light of 436 nm. […] The free sulfhydryls originally located in the transmembrane region expose and combine with the fluorescent dye. And then the detector will detect changes in signal enhancement. Therefore, the thermal stability of membrane proteins can be determined according to the temperature (Tm) at the midpoint of changes in signal intensity.
Experimental steps: Upon preliminary purification, the obtained protein solution was transferred into a small concentration tube (100 kd, 500 ul) for concentration (1000 rcf, 12 min, 4° C.). After centrifugation, the concentration tube was taken out and flicked to prevent protein coagulation due to high local concentration. The final concentrated volume was about 50 μl. 117 μl of purified solution (volume is suitable to make the total volume up to 120 μl), 1 μl fluorescent dye cpm (in-house prepared) and 2 μl of concentrated protein solution (the amount of added protein is 3-5 μg according to the calculated concentration of the protein solution and the concentrated volume) were added to 2 ml Ependorf tube and incubated at room temperature for 20 min. And then the mixture was added to the cuvette (Qwan) and put in the testing equipment Cary, wherein the surface of the frosted glass faced out. The temperature was set in the range of 4-90° C. with 1° C. increase per minute and the program was run. Tm value can be obtained by processing the data and graph with a mapping software and can be used to compare the difference of protein thermal stability under different conditions.

[3] = Cytotoxicity (CC50) in TZM-bl cells; type: cell-based; conditions: human
[4] = system: HIV-1SF162 virus strain; test: Inhibition activity on TZM-bl cells infected with HIV-1SF162; conditions: for EC50: Human immunodeficiency virus 1, TZM-bl; for therapeutic index (TI): TZM-bl cells infected with HIV-1SF162
[5] = TZM-bl cells (Table 3), read-out: CC50

Compound	IC50 [1] [nM]	Tm (° C.) [2] [°C]	CC50 [3, 5] [µg/mL]	EC50 [4] [µg/mL]	therapeutic index (TI) [4]	CC50 [3] [µg/mL]	calcium influx inhibition effect in words, versus positive control compounds [1]
Cc1nnc(C(C)C)n1C1CCN(CC[C@H](NC(=O)C2CCCC2)c2cccnc2)CC1 [Compound 9, N-[(1S)-3-[4-(3-isopropyl-5-methyl-4H-1,2,4-triazol-4-yl)-piperidin-1-yl]-1-(pyridin-3-yl)propyl]cyclopentane-1-carboxamide]	79.3	61.32	> 100	1.81 (≈ 4.13 µM)	55.42	–	–
Cc1nnc(C(C)C)n1C1CC2CCC(C1)N2CC[C@H](NC(=O)C1CCCC1)c1cccnc1 (stereo partly drawn) [Compound 10, N-[(1S)-3-[exo-3-(3-isopropyl-5-methyl-4H-1,2,4-triazol-4-yl)-8-azabicyclo[3.2.1]octane-8-yl]-1-(pyridin-3-yl)propyl]cyclopentane-1-carboxamide]	36.6	63.21	–	1.42 (≈ 3.06 µM)	>70.42	> 100	–
CCC1CCC(C(=O)N[C@@H](CCN2C3CCC2CC(n2c(C)nnc2C(C)C)C3)c2cccs2)CC1 (stereo partly shown) [Compound 19]	21.5	69.20	–	0.00959 (≈ 0.0187 µM)	8940.56	85.7 (≈ 168 µM)	–
CC(=O)NC(CCN1C2CCC1CC(n1c(C)nnc1C(C)C)C2)c1cccs1 (stereo not drawn) [Compound 4, N-[3-[exo-3-(3-isopropyl-5-methyl-4H-1,2,4-triazol-4-yl)-8-azabicyclo[3.2.1]octane-8-yl]-1-(thiophen-2-yl)propyl]acetamide]	15	65.64	42.8 (≈ 103 µM)	1.46 (≈ 3.51 µM)	29.29	–	–
Cc1nnc(C(C)C)n1C1CCN(CC[C@H](NC(=O)C2CCC(F)(F)CC2)c2cccs2)CC1 [Compound 13, 4,4-difluoro-N-[(1S)-3-[4-(3-isopropyl-5-methyl-4H-1,2,4-triazol-4-yl)-piperidin-1-yl]-1-(thiophen-2-yl)propyl]cyclohexane-1-carboxamide]	3.4	65.32	> 100	0.183 (≈ 0.371 µM)	>1093.14	–	better than the positive control compounds
CC(=O)NC(CCN1CCC(n2c(C)nnc2C(C)C)CC1)c1cccs1 (stereo not shown) [Compound 2, N-[3-[4-(3-isopropyl-5-methyl-4H-1,2,4-triazol-4-yl)-piperidin-1-yl]-1-(thiophen-2-yl)propyl]acetamide]	32.6	65.23	> 100	0.326 (≈ 0.837 µM)	>306.75	–	–
Cc1nnc(C(C)C)n1C1CCN(CC[C@H](NC(=O)C2CCC(F)(F)CC2)c2ccsc2)CC1 [Compound 21, 4,4-difluoro-N-[(1S)-3-[4-(3-isopropyl-5-methyl-4H-1,2,4-triazol-4-yl)-piperidin-1-yl]-1-(thiophen-3-yl)propyl]cyclohexane-1-carboxamide]	11.9	64.68	> 200	0.15 (≈ 0.304 µM)	>1333.96	–	comparable to the positive control compounds
Cc1nnc(C(C)C)n1C1CCN(CCC(NC(=O)C2CCC(F)(F)CC2)c2cccs2)CC1 (stereo not shown) [Compound 1, 4,4-difluoro-N-[3-[4-(3-isopropyl-5-methyl-4H-1,2,4-triazol-4-yl)-piperidin-1-yl]-1-(thiophen-2-yl)propyl]cyclohexane-1-carboxamide]	36.6	60.59	> 100	0.29 (≈ 0.587 µM)	>340.14	–	–
CCCC(=O)N1CCc2c(nc(C)n2C2CC3CCC(C2)N3CC[C@H](NC(C)=O)c2ccc(Cl)s2)C1 (stereo partly drawn) [Compound 128, N-{(1S)-3-[(3-endo)-3-(5-n-butyryl-2-methyl-4,5,6,7-tetrahydro-1H-imidazo[4,5-c]pyridin-1-yl)-8-azabicyclo[3.2.1]octane-8-yl]-1-(5-chlorothiophen-2-yl)-propyl}acetamide]	17.5	–	–	0.174 (≈ 0.327 µM)	>1150.82	> 200	–
Cc1nnc(C(C)C)n1C1CC2CCC(C1)N2CC[C@H](NC(=O)C1CCCCC1)c1ccsc1 (stereo partly shown) [Compound 24]	44.6	62.31	–	–	–	–	–
COC(=O)N1CCc2c(nc(C)n2C2CC3CCC(C2)N3CC[C@H](NC(C)=O)c2ccc(Cl)s2)C1 (stereo partly drawn) [Compound 126, Methyl 1-{(endo)-8-[(S)-3-acetamido-3-(5-chlorothiophen-2-yl)-propyl]-8-azabicyclo[3.2.1]octan-3-yl}-2-methyl-1,4,6,7-tetrahydro-5H-imidazo[4,5-c]pyridine-5-carboxylate]	22	–	–	0.091 (≈ 0.175 µM)	>2207.68	> 200	–
Cc1nnc(C(C)C)n1C1CC2CCC(C1)N2CC[C@H](NC(=O)C1CCCCC1)c1ccc(F)nc1 (stereo partly shown) [Compound 35]	270	–	–	> 40	–	> 200	–
CC(=O)N[C@@H](CCN1C2CCC1CC(n1c(C)nc3c1CCN(C(=O)C1CC1)C3)C2)c1ccc(Cl)s1 (stereo partly drawn) [Compound 130, N-{(1S)-3-[(3-endo)-3-(5-cyclopropionyl-2-methyl-4,5,6,7-tetrahydro-1H-imidazo[4,5-c]pyridin-1-yl)-8-azabicyclo[3.2.1]octane-8-yl]-1-(5-chlorothiophen-2-yl)-propyl}acetamide]	18.5	–	–	0.053 (≈ 0.1 µM)	>2562.98	> 200	–
CC(=O)N[C@@H](CCN1C2CCC1CC(n1c(C)nc3c1CCN(C(=O)C(C)C)C3)C2)c1nccs1 (stereo partly drawn) [Compound 121, N-{(1S)-3-[(3-endo)-3-(5-isobutyryl-2-methyl-4,5,6,7-tetrahydro-1H-imidazo[4,5-c]pyridin-1-yl)-8-azabicyclo[3.2.1]octane-8-yl]-1-(thiazol-2-yl)-propyl}acetamide]	32.3	–	–	0.328 (≈ 0.658 µM)	>386.37	> 200	–
Cc1ccc([C@H](CCN2C3CCC2CC(n2c(C)nnc2C(C)C)C3)NC(=O)C2CCCC2)s1 (stereo partly drawn) [Compound 31, N-[(1S)-3-[exo-3-(3-isopropyl-5-methyl-4H-1,2,4-triazol-4-yl)-8-azabicyclo[3.2.1]octane-8-yl]-1-(5-methylthiophen-2-yl)propyl]cyclopentane-1-carboxamide]	9.76	–	–	0.033 (≈ 0.0682 µM)	>5714.29	> 200	comparable to the positive control compounds
CC(=O)N[C@@H](CCN1C2CCC1CC(n1c(C)nc3c1CCN(C(=O)C(C)C)C3)C2)c1ccc(Cl)s1 (stereo partly drawn) [Compound 129, N-{(1S)-3-[(3-endo)-3-(5-isobutyryl-2-methyl-4,5,6,7-tetrahydro-1H-imidazo[4,5-c]pyridin-1-yl)-8-azabicyclo[3.2.1]octane-8-yl]-1-(5-chlorothiophen-2-yl)-propyl}acetamide]	14.2	–	–	0.072 (≈ 0.135 µM)	>1526.72	> 200	–
CCC(=O)N1CCc2c(nc(C)n2C2CC3CCC(C2)N3CC[C@H](NC(C)=O)c2ccc(F)s2)C1 (stereo partly drawn) [Compound 134, N-{(1S)-3-[(3-endo)-3-(5-propionyl-2-methyl-4,5,6,7-tetrahydro-1H-imidazo[4,5-c]pyridin-1-yl)-8-azabicyclo[3.2.1]octane-8-yl]-1-(5-fluorothiophen-2-yl)-propyl}acetamide]	22.1	–	–	0.113 (≈ 0.225 µM)	>1772.41	> 200	–
Cc1nnc(C(C)C)n1C1CC2CCC(C1)N2CC[C@H](NC(=O)C1CCCC1)c1ccc(F)nc1 (stereo partly shown) [Compound 36]	31.8	–	> 200	> 40	–	–	–
Cc1nnc(C(C)C)n1C1CCN(CC[C@H](NC(=O)C2CCC(F)(F)CC2)c2cccnc2)CC1 [Compound 5, 4,4-difluoro-N-[(1S)-3-[4-(3-isopropyl-5-methyl-4H-1,2,4-triazol-4-yl)-piperidin-1-yl]-1-(pyridin-3-yl)propyl]cyclohexane-1-carboxamide]	29.7	57.31	–	–	–	–	–
CCC(=O)N1CCc2c(nc(C)n2C2CC3CCC(C2)N3CC[C@H](NC(C)=O)c2ccc(Cl)s2)C1 (stereo partly drawn) [Compound 127, N-{(1S)-3-[(3-endo)-3-(5-propionyl-2-methyl-4,5,6,7-tetrahydro-1H-imidazo[4,5-c]pyridin-1-yl)-8-azabicyclo[3.2.1]octane-8-yl]-1-(5-chlorothiophen-2-yl)-propyl}acetamide]	22.9	–	> 200	0.145 (≈ 0.28 µM)	>1379.94	–	–
